Assay results from patent publication US20110028458A1, “INHIBITION OF CELL MIGRATION BY A FARNESYLATED DIBENZODIAZEPINONE” (THALLION PHARMACEUTICALS INC., priority 2008, published 2011).

Columns and labels:
[1] = system: HT-29 (colorectal carcinoma); assay: In vitro cytotoxic activity, propidium iodide, HT-29; assay type: cell-based, human
[2] = system: SRBC; assay: Hemolysis of SRBC; assay type: cell-based
[3] = system: central benzodiazepine receptor (CBR; GABAA); assay: CBR (GABAA) radioligand binding assay, [3H]flunitrazepam, rat brain; settings: 10 μM
Excerpt: (§1) The procedures used were based on known assays: ACAT (from rat; Ref: Largis et al (1989), J. Lipid. Res., vol 30, 681-689), COX-2 (human; Ref: Riendeau et al (1997), Can. J. Physiol. Pharmacol., vol 75, 1088-1095 and Warner et al (1999), Pro. Natl. Acad Sci. USA, vol 96, 7563-7568), 5-LO (human; Ref: Carter et al (1991), J. Pharmacol. Exp. Ther., vol 256, no 3, 929-937, and Safayhi et al (2000), Planta Medica, vol 66, 110-113), PBR (from rat; Le Fur et al (1983), Life Sci. USA, vol 33, 449-457), CysLT1 (human; Martin et al (2001), Biochem. Pharmacol., vol 62, no 9, 1193-1200) and CBR (from rat; Damm et al (1978), Res. Comm. Chem. Pathol. Pharmacol., vol 22, 597-600 and Speth et al (1979), Life Sci., vol 24, 351-357).
(§2) Binding Assays were done at constant concentration of the compound, in 1% DMSO as vehicle, and are specified below each enzyme/receptor type in Table 3. Significance was obtained when a result was ≧50% binding or inhibition (underlined).
As Compound 1 was isolated from structural prediction through genetic analysis and activity identified through in vitro cytotoxic assays, its molecular target(s) were unknown at the time of discovery. Based on the structural characteristics of TLN-4601, we first investigated its binding affinity to the central (GABAA; CBR;) and peripheral (PBR) benzodiazepine receptors. The effect of TLN-4601 on CBR (GABAA) and PBR was initially evaluated in a radioligand-binding assay at MDS Pharma Services (Taipei, Tawain). CBR and PBR were obtained from rat brain and heart membrane-fractions, respectively. Displacement assays were done in the presence of 1 nM [^3H]-Flunitrazepam (CBR; GABAA) or 0.3 nM of [^3H]-PK11195 (PBR). TLN-4601 was tested at 0.01, 0.1, 0.5, 1, 5 and 10 μM. Non-specific binding was estimated in the presence of 10 μM diazepam (CBR) or 100 μM dipyrimadole (PBR) and assays were performed according to previous described methods (Damm et al Res Commun Chem Pathol Pharmacol 22, pp 597-600; Le Fur et al (1983) Life Science 33, pp 449-57). […] This contrats with current specific PBR ligands, which bind the PBR with nanomolar affinity yet their effect on cell proliferation, is in the micromolar range.

[4] = system: MDA-MB-231 (mammary gland adenocarcinoma); assay: In vitro cytotoxic activity, propidium iodide, MDA-MB-231; assay type: cell-based, human; settings: 96 hrs
[5] = system: SF268 (CNS); assay: In vitro cytotoxic activity, propidium iodide, SF-268; assay type: cell-based, human; settings: 96 hrs
[6] = system: ACAT; assay: ACAT enzyme assay, [14C]cholesterol ester quantitation; assay type: biochemical, rat; settings: 10 μM
Excerpt: as §1
Binding assays were done for each of Compounds 1-12 and 46 using ACAT, COX-2, 5-LO, PBR and CysLT1 enzymes. The procedures used are based on the respective references mentioned above and the conditions are summarized in Tables 1 (enzyme assays) and 2 (radioligand receptor assays).
as §2

[7] = system: PC-3 (prostate adenocarcinoma); assay: In vitro cytotoxic activity, propidium iodide, PC-3; assay type: cell-based, human; settings: 96 hrs

SMILES	GI50 ([1]; Homo sapiens, HT-29, 96 h)	Hemolysis ED50 (concentration necessary to achieve 50% hemolysis of SRBC) [2]	Percentage of inhibition or binding activity, CBR [3]	GI50 [4]	GI50 [5]	Percentage of inhibition or binding activity, ACAT [6]	GI50 [7]	GI50 ([1]; 96 hrs)
CC(=O)NC(C)(CCC=C(C)C)CCC/C(C)=C/CN1C(=O)c2cccc(O)c2Nc2c(O)cc(O)cc21 (stereo not shown) [Compound 92]	> 30 µM	>64 µg/mL	–	–	–	–	–	–
COc1cccc2c1Nc1c(O)cc(O)cc1N(C/C=C(\C)CC/C=C(\C)CCC=C(C)C)C2=O [Compound 4]	–	>64 µg/mL	12%	–	–	–	–	–
CC(=O)Oc1cc(OC(C)=O)c2c(c1)N(CC=C(C)CCC=C(C)CCC=C(C)C)C(=O)c1cccc(OC(C)=O)c1N2 [Compound 12]	–	>64 µg/mL	−24%	2.79 µM	1.95 µM	83%	1.2 µM	9.33 µM
COC(C)(C)CCCC(C)(CCC/C(C)=C/CN1C(=O)c2cccc(O)c2Nc2c(O)cc(O)cc21)OC (stereo not shown) [Compound 84]	–	>32 µg/mL	–	–	–	–	–	–
CCN1c2c(O)cccc2C(=O)N(C/C=C(\C)CC/C=C(\C)CCC=C(C)C)c2cc(O)cc(O)c21 [Compound 14]	–	43.9 µg/mL	–	2.16 µM	0.76 µM	–	1.15 µM	2.04 µM
CC(=O)Oc1cc(OC(C)=O)c2c(c1)N(CC=C(C)CCC=C(C)CCC=C(C)C)C(=O)c1cccc(O)c1N2 [Compound 9]	–	>64 µg/mL	10%	2.48 µM	1.88 µM	77%	1.44 µM	12.6 µM
COc1cccc2c1Nc1c(OC)cc(O)cc1N(CC=C(C)CCC=C(C)CCC=C(C)C)C2=O [Compound 7]	–	>64 µg/mL	21%	17.4 µM	18.5 µM	95%	14.6 µM	14.1 µM
CCCN1c2c(O)cccc2C(=O)N(C/C=C(\C)CC/C=C(\C)CCC=C(C)C)c2cc(O)cc(O)c21 [Compound 63]	–	>64 µg/mL	–	–	–	–	–	–
C/C(=C\CN1C(=O)c2cccc(O)c2Nc2c(O)cc(O)cc21)CC/C=C(\C)CCC1OC1(C)C (stereo not shown) [Compound 18]	–	>64 µg/mL	–	> 30 µM	7.45 µM	–	> 30 µM	> 30 µM
CC(C)=CCCC(C)(O)CCC/C(C)=C/CN1C(=O)c2cccc(O)c2Nc2c(O)cc(O)cc21 (stereo not shown) [Compound 89]	> 30 µM	>64 µg/mL	–	–	–	–	–	–
CC(C)=CCC/C(C)=C/CC/C(C)=C/CN1C(=O)c2cccc(O)c2N(C)c2c(O)cc(O)cc21 [Compound 2]	–	5.12 µg/mL	22%	–	–	51%	–	–
CC(=O)Oc1cccc2c1Nc1c(OC(C)=O)cc(O)cc1N(CC=C(C)CCC=C(C)CCC=C(C)C)C2=O [Compound 10]	–	>64 µg/mL	5%	1.55 µM	2.02 µM	90%	1.35 µM	13 µM
CCCCCCN1c2c(O)cccc2C(=O)N(C/C=C(\C)CC/C=C(\C)CCC=C(C)C)c2cc(O)cc(O)c21 [Compound 67]	–	>64 µg/mL	–	–	–	–	–	–
CC(C)=CCCC1(C)OC1CC/C(C)=C/CN1C(=O)c2cccc(O)c2Nc2c(O)cc(O)cc21 (stereo not shown) [Compound 17]	–	35.0 µg/mL	–	> 30 µM	13.4 µM	–	18.7 µM	> 30 µM
CC(C)CCCC(C)CCCC(C)CCN1C(=O)c2cccc(O)c2Nc2c(O)cc(O)cc21 (stereo not shown) [Compound 46]	–	13.9 µg/mL	27%	–	–	8%	–	–
